The test system of one assay is P. cepacia. The assay can be described thus: MIC agar dilution, aerobic and facultative bacteria. The following applies: Culture # 1684. A general note: In agar dilution the substance is mixed into plates at graded concentrations.
The subject of the next assay is Providencia stuartii. Described as above. The following applies: Culture # 1831.
A further assay has as its system B. loescheii. The assay can be described thus: MIC agar dilution, anaerobic bacteria. The following applies: Culture # 1767. It counts as cell-based.
For the next assay, the system named is Fusobacterium nucleatum. As to the kind of experiment: MIC agar dilution, anaerobic bacteria. It counts as cell-based. Conditions: Culture # 2478.
The next assay relates to Streptococcus agalactiae. As to the kind of experiment: MIC agar dilution, aerobic and facultative bacteria. The following applies: Culture # 1670.
Another assay deals with P. species. As to the kind of experiment: MIC agar dilution, anaerobic bacteria. In kind it is cell-based. The following applies: Culture # 1776.
The subject of the next assay is Clostridium perfringens. As to the kind of experiment: microbe, parasite or virus in culture. It counts as cell-based.

Molecules are shown by their SMILES. ≈ marks a conversion by molar mass, not a printed value.

Consider `CCc1c(Cl)c(OC)c(Cl)c(OC)c1C(=O)OC1C(C)OC(OCC2=CC=CCC(O)C(C)=CC(CC)C(OC3OC(C)(C)C(OC(=O)C(C)C)C(O)C3O)C(C)=CC(C)=CCC(C(C)O)OC2=O)C(OC)C1O` (stereo not drawn) [Example 2, 3"', 5"'-Di-O-methyltiacumicin B], for which the MIC was over 100 µg/mL with P. cepacia; over 100 µg/mL against Providencia stuartii; over 2 µg/mL in the assay on B. loescheii; over 2 µg/mL with Fusobacterium nucleatum; over 100 µg/mL in the assay on Streptococcus agalactiae; over 2 µg/mL against P. species. Moreover, the MIC in the assay on Clostridium perfringens (Culture # 1771), in the assay on Clostridium perfringens (Culture # 1772) and in the assay on Clostridium perfringens (Culture # 1773) was 0.06 µg/mL (≈ 0.0552 µM) each time.

The values above are taken from patent publication US5583115A, “Dialkyltiacumicin compounds” (Abbott Laboratories, priority 1995, dated 1996).
